Reference: ChEMBL document CHEMBL1201862, “PubChem BioAssay data set” (2004)
The source made the active and inactive calls.

Legend:
[1] = target: Lysine-specific demethylase 4C (Homo sapiens, UniProt Q9H3R0); experiment: inhibition of JMJD2C H3K9me3 demethylation – biochemical, DELFIA europium, cherry-picked samples, dose response (AID 488835); format: functional
[2] = cells; format: functional
[3] = target: Lysine-specific demethylase 4A (Homo sapiens, UniProt O75164); experiment: inhibition of JMJD2A H3K9me3 demethylation – biochemical, DELFIA europium, cherry-picked samples, selectivity assay for GASC-1 inhibitor project, dose response (AID 488840)
[4] = target: Nonstructural protein 1 (Influenza A virus, UniProt Q194T2); format: functional, Influenza A virus (A/California/07/2009(H1N1))
[5] = Vero E6 cell cytotoxicity, dose response, cytotoxicity control for non-replicating M. tuberculosis project, secondary assay (AID 492998); format: functional, VeroE6; conditions: Vero C1008
[6] = microbe, parasite or virus in culture; format: functional; conditions: Mycobacterium tuberculosis
[7] = system: BJ; experiment: BJ-TERT fibroblast viability loss – cell-based, RAS-independent, luminescence, dose response (AID 1933); format: functional; conditions: Homo sapiens
[8] = system: BJ; experiment: cells; format: functional, cell-based; conditions: Homo sapiens
[9] = system: BJ; experiment: BJ-TERT-LT-ST fibroblast viability loss – cell-based, RAS-independent, luminescence, dose response (AID 1935); format: functional; conditions: Homo sapiens;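 further: BJ fibroblasts immortalized with TERT plus LT and ST oncogenes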
[10] = system: INS1; experiment: INS-1E survival protection against cytokine death – cell-based, luminescence, retest, dose response (AID 449756); format: functional; conditions: Rattus norvegicus;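 further: cell death triggered by IL-1 beta plus TNF-alpha plus IFN-gamma mixture; protective hits raise ATP signal compared with cytokine alone wells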
[11] = DRD fibroblast viability loss – cell-based, non-viral oncogenic, luminescence, dose response (AID 1934); format: functional; conditions: Homo sapiens
[12] = THP-1 cell cytotoxicity, dose response, cytotoxicity control for non-replicating M. tuberculosis project (AID 489025); format: functional
[13] = target: T1, Sphingosine 1-phosphate receptor 4 (Homo sapiens, UniProt O95977); experiment: Fluorescence dose response cell-based high throughput screening assay for agonists of the Sphingosine 1-Phosphate Receptor 4 (S1P4). [Related pubchem assays: 1509 (Primary screen.), 1523 (Confirmation screen in triplicates.)]; format: functional
T1 sequence (O95977 whole entry): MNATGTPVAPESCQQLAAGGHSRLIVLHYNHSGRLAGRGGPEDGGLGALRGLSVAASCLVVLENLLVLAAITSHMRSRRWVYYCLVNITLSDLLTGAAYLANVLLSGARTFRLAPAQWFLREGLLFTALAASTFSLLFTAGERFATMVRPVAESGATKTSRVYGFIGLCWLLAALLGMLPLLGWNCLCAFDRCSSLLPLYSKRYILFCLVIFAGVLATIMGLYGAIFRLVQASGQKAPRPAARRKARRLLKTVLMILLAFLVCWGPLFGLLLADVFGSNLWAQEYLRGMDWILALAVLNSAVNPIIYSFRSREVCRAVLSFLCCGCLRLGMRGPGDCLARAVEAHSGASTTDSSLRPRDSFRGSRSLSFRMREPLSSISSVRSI

[14] = target: Sphingosine 1-phosphate receptor 1 (Homo sapiens, UniProt P21453); experiment: Fluorescence-based counterscreen assay for S1P4 agonists: Cell-based dose response high throughput screening assay to identify agonists of the Sphingosine 1-Phosphate Receptor 1 (S1P1). [Related pubchem assays (depositor defined):AID1509, AID1523, AID1801, AID463107, AID463118, AID463119, AID463122, AID463123, AID463129, AID463225, AID504400, AID504460]; format: functional
[15] = target: Sphingosine 1-phosphate receptor 2 (Homo sapiens, UniProt O95136); experiment: Dose Response Cell Based Assay for Agonists of the S1P2 Receptor. [Related pubchem assays: 729, 736, 843 ]; format: functional
[16] = target: T2, 5-hydroxytryptamine receptor 1A (Homo sapiens, UniProt P08908); format: functional
T2 sequence (P08908 whole entry): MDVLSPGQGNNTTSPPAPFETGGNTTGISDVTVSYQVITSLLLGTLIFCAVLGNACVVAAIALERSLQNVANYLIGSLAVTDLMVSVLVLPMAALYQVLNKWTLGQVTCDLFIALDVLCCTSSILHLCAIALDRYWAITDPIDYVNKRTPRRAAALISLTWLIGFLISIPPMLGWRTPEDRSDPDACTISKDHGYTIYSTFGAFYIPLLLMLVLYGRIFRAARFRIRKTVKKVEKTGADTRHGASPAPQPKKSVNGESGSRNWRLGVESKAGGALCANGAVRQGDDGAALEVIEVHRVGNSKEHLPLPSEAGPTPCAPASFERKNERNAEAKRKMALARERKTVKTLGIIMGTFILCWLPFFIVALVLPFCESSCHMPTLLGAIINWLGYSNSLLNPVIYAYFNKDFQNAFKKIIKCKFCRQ

Sequence of Sphingosine 1-phosphate receptor 2 (O95136 whole entry): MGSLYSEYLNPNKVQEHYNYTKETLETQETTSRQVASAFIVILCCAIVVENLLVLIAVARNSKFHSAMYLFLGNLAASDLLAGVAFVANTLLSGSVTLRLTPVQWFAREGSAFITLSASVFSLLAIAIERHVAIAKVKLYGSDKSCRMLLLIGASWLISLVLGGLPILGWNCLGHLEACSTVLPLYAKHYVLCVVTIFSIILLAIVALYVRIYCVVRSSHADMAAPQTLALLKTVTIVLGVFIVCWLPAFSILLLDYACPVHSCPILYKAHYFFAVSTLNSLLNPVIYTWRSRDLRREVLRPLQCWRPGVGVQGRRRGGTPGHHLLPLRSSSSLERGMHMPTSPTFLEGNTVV
Sequence of Lysine-specific demethylase 4A (O75164 whole entry): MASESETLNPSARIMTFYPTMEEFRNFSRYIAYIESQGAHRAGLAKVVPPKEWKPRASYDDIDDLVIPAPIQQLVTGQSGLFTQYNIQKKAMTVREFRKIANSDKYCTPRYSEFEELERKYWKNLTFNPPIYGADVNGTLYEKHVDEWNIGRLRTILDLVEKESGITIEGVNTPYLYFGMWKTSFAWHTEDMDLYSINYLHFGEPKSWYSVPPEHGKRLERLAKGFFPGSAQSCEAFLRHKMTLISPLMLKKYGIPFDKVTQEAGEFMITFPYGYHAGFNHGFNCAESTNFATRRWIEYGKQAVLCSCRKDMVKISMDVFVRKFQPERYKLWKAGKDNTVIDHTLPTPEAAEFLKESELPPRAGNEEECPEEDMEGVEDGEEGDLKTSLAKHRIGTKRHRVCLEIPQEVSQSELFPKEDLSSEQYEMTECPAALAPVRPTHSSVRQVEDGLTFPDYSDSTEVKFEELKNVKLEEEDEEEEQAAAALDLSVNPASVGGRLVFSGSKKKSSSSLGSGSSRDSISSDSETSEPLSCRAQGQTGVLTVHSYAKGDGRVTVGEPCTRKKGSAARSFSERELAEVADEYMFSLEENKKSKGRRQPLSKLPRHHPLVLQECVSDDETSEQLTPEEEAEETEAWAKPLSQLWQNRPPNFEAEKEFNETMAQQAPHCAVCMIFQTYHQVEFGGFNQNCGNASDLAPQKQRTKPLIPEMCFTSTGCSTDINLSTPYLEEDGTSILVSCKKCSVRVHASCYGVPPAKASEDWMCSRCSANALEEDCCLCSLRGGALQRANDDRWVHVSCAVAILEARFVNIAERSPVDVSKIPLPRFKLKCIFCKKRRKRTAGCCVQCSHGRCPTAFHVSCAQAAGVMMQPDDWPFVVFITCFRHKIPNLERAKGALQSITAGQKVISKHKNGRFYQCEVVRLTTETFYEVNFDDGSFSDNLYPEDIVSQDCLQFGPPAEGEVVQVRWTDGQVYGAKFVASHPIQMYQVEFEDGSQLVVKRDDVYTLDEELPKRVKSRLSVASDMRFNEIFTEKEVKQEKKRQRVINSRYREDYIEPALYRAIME
Sequence of Lysine-specific demethylase 4C (Q9H3R0 whole entry): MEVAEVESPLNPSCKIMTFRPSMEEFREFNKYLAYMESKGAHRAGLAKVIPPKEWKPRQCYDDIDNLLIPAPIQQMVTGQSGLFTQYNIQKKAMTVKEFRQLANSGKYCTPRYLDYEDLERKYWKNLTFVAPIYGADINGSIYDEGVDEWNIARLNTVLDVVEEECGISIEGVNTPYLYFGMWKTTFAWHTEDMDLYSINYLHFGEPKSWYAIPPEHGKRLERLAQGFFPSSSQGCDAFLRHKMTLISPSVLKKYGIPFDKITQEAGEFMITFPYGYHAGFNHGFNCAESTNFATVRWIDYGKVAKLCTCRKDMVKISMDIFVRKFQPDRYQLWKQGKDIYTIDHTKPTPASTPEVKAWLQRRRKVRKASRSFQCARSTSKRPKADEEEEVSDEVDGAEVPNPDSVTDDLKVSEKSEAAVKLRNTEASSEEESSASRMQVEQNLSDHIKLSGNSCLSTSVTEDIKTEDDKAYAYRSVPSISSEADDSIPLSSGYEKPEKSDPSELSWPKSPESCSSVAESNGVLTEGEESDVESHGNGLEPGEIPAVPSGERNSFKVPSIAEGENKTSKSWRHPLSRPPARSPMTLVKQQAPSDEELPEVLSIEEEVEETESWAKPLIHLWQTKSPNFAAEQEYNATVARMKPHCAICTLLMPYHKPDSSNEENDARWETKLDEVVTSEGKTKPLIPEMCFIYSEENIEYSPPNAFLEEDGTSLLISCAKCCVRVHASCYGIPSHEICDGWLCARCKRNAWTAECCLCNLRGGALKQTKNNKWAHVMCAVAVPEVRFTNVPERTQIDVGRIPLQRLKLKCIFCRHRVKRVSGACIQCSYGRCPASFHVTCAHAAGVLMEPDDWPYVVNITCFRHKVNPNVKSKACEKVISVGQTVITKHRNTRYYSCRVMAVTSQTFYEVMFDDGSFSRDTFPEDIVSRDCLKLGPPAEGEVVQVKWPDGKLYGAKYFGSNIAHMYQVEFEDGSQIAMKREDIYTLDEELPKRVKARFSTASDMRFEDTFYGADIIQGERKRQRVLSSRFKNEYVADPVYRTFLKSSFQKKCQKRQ
Sequence of Sphingosine 1-phosphate receptor 1 (P21453 whole entry): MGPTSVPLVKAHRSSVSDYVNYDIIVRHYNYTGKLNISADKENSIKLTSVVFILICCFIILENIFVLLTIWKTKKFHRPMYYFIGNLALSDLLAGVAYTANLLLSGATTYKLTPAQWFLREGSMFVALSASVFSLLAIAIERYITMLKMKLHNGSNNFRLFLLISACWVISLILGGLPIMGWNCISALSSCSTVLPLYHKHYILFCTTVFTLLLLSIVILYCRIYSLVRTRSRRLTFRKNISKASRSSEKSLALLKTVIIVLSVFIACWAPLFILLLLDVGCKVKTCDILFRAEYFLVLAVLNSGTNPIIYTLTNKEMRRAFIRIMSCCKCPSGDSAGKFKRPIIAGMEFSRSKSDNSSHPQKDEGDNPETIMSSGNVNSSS
Sequence of Nonstructural protein 1 (Q194T2 whole entry): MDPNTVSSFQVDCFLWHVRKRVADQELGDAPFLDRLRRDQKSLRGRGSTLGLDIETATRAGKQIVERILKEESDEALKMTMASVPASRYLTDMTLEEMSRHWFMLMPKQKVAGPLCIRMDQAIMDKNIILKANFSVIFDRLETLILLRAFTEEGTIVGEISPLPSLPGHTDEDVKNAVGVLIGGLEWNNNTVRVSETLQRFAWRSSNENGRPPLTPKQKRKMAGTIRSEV

N#C/C(N=Nc1ccccc1O)=N\Nc1ccccc1O
AC50 [1]: 0.388 µM (active)
IC50 [2]: 1.29 µM (active)
AC50 [3]: 3.37 µM (active)
IC50 [4]: 10.9 µM (active)
CC50 [5]: 7.05 µM (active)
CC50 [6]: 4.13 µM (active)
EC50 [7]: 5.98 µM (active)
EC50 [8]: 7.91 µM (active)
EC50 [9]: 6.76 µM (active)
AC50 [10]: 2.3 µM (active)
EC50 [11]: 8.75 µM (active)
CC50 [12]: 3.15 µM (active)

CCOC(=O)c1cc2ccc(OC(=O)c3ccco3)cc2oc1=O
EC50 [13]: 0.785 µM (active)
EC50 [14]: 2.08 µM (active)
EC50 [15]: 1.99 µM (active)
EC50 [16]: > 50 µM (not active)
